US11000033B2, “Ketone or oxime compound, and herbicide” (NISSAN CHEMICAL CORPORATION, priority 2014, dated 2021)

Experiments:
Assay type in all cases: in vivo
transplanted rice plant = experiment: Test Example 1: effect on crop, application before weed generation in submerged conditions (symbol a); details: application herbicide amount 320 g/ha
Procedure, shortened: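 Rice at 2.5 leaf stage transplanted into submerged soil (4 cm depth) sown with three weed species; herbicide applied before weed emergence.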

Digitaria ciliaris = experiment: Test Example 5: herbicidal effect by foliage application, plastic box (symbol F); details: 320 g/ha, 3 weeks after application
Procedure, shortened: (§1)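 Leaf-applied emulsion, water-diluted to a preset herbicide dose, on two-week-old seedlings raised in a 25° C. to 30° C. greenhouse; injury rated at 3 weeks using earlier criteria.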

Alopecurus myosuroides = experiment: Test Example 4: herbicidal effect by soil treatment (symbol J); details: application herbicide amount 320 g/ha
Procedure, shortened: (§2)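 Seeds were sown in sterilized diluvial soil, covered with about 1.5 cm of soil, and the soil surface was sprayed with a water-diluted emulsion of the compound at a predetermined rate. Plants grew in a greenhouse at 25° C. to 30° C.; effects were scored visually 3 weeks after application.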

Avena fatua = experiment: Test Example 4: herbicidal effect by soil treatment (symbol I); details: application herbicide amount 320 g/ha
Procedure, shortened: as §2

Setaria viridis = experiment: Test Example 5: herbicidal effect by foliage application, plastic box (symbol G); details: 320 g/ha, 3 weeks after application
Procedure, shortened: as §1

beet = experiment: Test Example 5: effect on crop by foliage application, plastic box (symbol f); details: 320 g/ha, 3 weeks after application
Procedure, shortened: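 Sterilized diluvial soil, plastic box (21 × 13 × 7 cm); spot sowing, ~1.5 cm soil cover; greenhouse 25–30° C.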

Monochoria vaginalis = experiment: Test Example 2: herbicidal activity, application during weed generation in submerged conditions (symbol C); details: Table 23; application herbicide amount 320 g/ha; grade 0-5 by criteria of Test Example 1
Procedure, shortened: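 Paddy pot test, submerged (4 cm water), alluvial soil, mixed sowing; greenhouse 25–30° C. Emulsion formulation diluted to predetermined rate, applied onto floodwater at 1–2 leaf stage. Visual herbicidal rating at 3 wk post-treatment.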

rice = experiment: Test Example 4: effect on crop by soil treatment (symbol b); details: application herbicide amount 320 g/ha
Procedure, shortened: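 Plants grew in a 25° C. to 30° C. greenhouse after spot-sowing of seeds, including beet, rapeseed, wheat and rice, into sterilized diluvial soil under roughly 1.5 cm of cover soil.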

Leptochloa chinensis = experiment: Test Example 3: herbicidal effect by foliage application, Wagner pot (symbol D); details: application herbicide amount 320 g/ha
Procedure, shortened: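 Foliar spray of water-diluted emulsion formulation at a predetermined herbicide amount onto 14-day-old plants in flooded alluvial soil (water depth 0.1–0.5 cm), greenhouse 25–30 °C; rice sown alongside. Scored 3 wk post-application on set criteria.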

| SMILES | Effect grade on crop, a: transplanted rice plant (transplanted rice plant) | F: Digitaria ciliaris, herbicidal effect grade (Digitaria ciliaris) | J: Alopecurus myosuroides, herbicidal effect grade (Alopecurus myosuroides) | I: Avena fatua, herbicidal effect grade (Avena fatua) | G: Setaria viridis, herbicidal effect grade (Setaria viridis) | f: beet, effect on crop grade (beet) | Herbicidal effect grade, C: Monochoria vaginalis (Monochoria vaginalis) | b: directly sowed rice plant, effect on crop grade (rice) | herbicidal effect on D (Leptochloa chinensis), grade 0-5 (Leptochloa chinensis) |
| --- | --- | --- | --- | --- | --- | --- | --- | --- | --- |
| Cc1cc(C)c(C2=C(O)CC(CC(=O)C(C)C)C2=O)c(C)c1 (stereo not drawn) [2-016] | 4 (Herbicidal ratio of 70% or higher and lower than 90%) | 5 (Herbicidal ratio of 90% or more (almost completely withered)) | 4 (Herbicidal ratio of 70% or higher and lower than 90%) | 0 (Herbicidal ratio of 5% or lower (almost no effect)) | 5 (Herbicidal ratio of 90% or more (almost completely withered)) | 0 (Herbicidal ratio of 5% or lower (almost no effect)) | 0 (Herbicidal ratio of 5% or lower (almost no effect)) | 5 (Herbicidal ratio of 90% or more (almost completely withered)) | 5 (Herbicidal ratio of 90% or more (almost completely withered)) |
| CCCC(=O)C(C(=O)OC)C1CC(O)=C(c2c(C)cc(C)cc2C)C1=O (stereo not drawn) [2-020] | 3 (Herbicidal ratio of 40% or higher and lower than 70%) | 3 (Herbicidal ratio of 40% or higher and lower than 70%) | 0 (Herbicidal ratio of 5% or lower (almost no effect)) | 0 (Herbicidal ratio of 5% or lower (almost no effect)) | 5 (Herbicidal ratio of 90% or more (almost completely withered)) | 0 (Herbicidal ratio of 5% or lower (almost no effect)) | 0 (Herbicidal ratio of 5% or lower (almost no effect)) | 5 (Herbicidal ratio of 90% or more (almost completely withered)) | 2 (Herbicidal ratio of 20% or higher and lower than 40%) |
| CCC(=O)CCC1CC(OC)=C(c2c(C)cc(C)cc2C)C1=O (stereo not drawn) [5-002] | 0 (Herbicidal ratio of 5% or lower (almost no effect)) | 0 (Herbicidal ratio of 5% or lower (almost no effect)) | 0 (Herbicidal ratio of 5% or lower (almost no effect)) | 0 (Herbicidal ratio of 5% or lower (almost no effect)) | 0 (Herbicidal ratio of 5% or lower (almost no effect)) | 0 (Herbicidal ratio of 5% or lower (almost no effect)) | 0 (Herbicidal ratio of 5% or lower (almost no effect)) | 0 (Herbicidal ratio of 5% or lower (almost no effect)) | 0 (Herbicidal ratio of 5% or lower (almost no effect)) |
| CCc1cc(Br)cc(C)c1C1=C(O)CC(C(C(=O)OC)C(C)=NOC)C1=O (stereo not drawn) [6-002] | 3 (Herbicidal ratio of 40% or higher and lower than 70%) | 5 (Herbicidal ratio of 90% or more (almost completely withered)) | 2 (Herbicidal ratio of 20% or higher and lower than 40%) | 0 (Herbicidal ratio of 5% or lower (almost no effect)) | 5 (Herbicidal ratio of 90% or more (almost completely withered)) | 0 (Herbicidal ratio of 5% or lower (almost no effect)) | 0 (Herbicidal ratio of 5% or lower (almost no effect)) | 5 (Herbicidal ratio of 90% or more (almost completely withered)) | 4 (Herbicidal ratio of 70% or higher and lower than 90%) |
